Measured values from patent US4368194A, “Pharmacologically active amine boranes” (The United States of America as represented by the …, priority 1981, dated 1983).
Where two headings read alike, the source gives them in different places.

Columns and labels:
[1] = tested on: carrageenan induced edema in mouse foot pads; experiment: Anti-inflammatory screen (carrageenan induced foot edema); type: in vivo, mice; settings: for Anti-inflammatory Screen: mice; for inhibition of the carrageenan induced edema in mouse foot pads: text summary of Table II
Summary of the method: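 Male CF1 mice (~30 g) given 10 mg/kg i.p. in 0.05% polysorbate 80-water, 3 hr and 30 min before 0.05 ml 2% carrageenan injected into the right hind plantar surface, with saline in the left foot as baseline. Feet excised at the ankle after 3 hr and weight increase measured.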

[2] = tested on: CF1 male mice; experiment: Writhing reflex (acetic acid); type: in vivo; settings: for Writhing Reflex: mice; for inhibition of the writhing reflex: text summary of Table II
Summary of the method: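 CF1 male mice were dosed with test drug at 20 mg/kg i.p. 20 min before 0.5 ml of 0.6% acetic acid. Abdominal stretches with hind-limb extension were counted over 10 min, starting 5 min after acid.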

[3] = tested on: Male Sprague Dawley rats; experiment: Chronic adjuvant arthritic screen; type: in vivo
Protocol: Male Sprague Dawley rats (about 160 g) were injected at the base of the tail with 0.2 ml of solution of killed and dried Mycobacterium butyricum and digitonin in mineral oil (see Waksman et al., J. Immunol., 85, 403 1960). Test drugs were administered intraperitoneally commencing on day 3 through day 20 at 2.5 mg/kg/day. Animals were sacrificed on day 21, and the feet were excised and weighed.

[4] = tested on: Sprague Dawley rats; experiment: Anti-pyretic screen; type: in vivo
Protocol: Sprague Dawley rats (about 200 g) were administered 2 ml of a 44% solution of Baker's yeast subcutaneously (see Roszkowski et al., supra) 18 hr prior to the injection of drugs at 2.5 or 5 mg/kg intraperitoneally resulting in an elevation of 3.46° F. Alternatively, rats were administered 0.25 mg killed and dried Mycobacterium butyricum (Difco) (see Randall et al., Arch int Pharmacodyn et De Ther, 220, 94 1976) subcutaneously prior to the administration of drugs. Rectal temperatures were taken immediately prior to and 2, 4, and 6 hr after drug administration.

[5] = tested on: Sprague Dawley rats; experiment: Red and white blood cell counts after 3 weeks dosing; type: in vivo; settings: dosing for three weeks intraperitoneally, rats
From the text: Hematocrits were also obtained.

[6] = tested on: Acid phosphatase; experiment: Lysosomal free acid phosphatase activity, liver homogenate; type: biochemical, rats; settings: 5 μmoles, in vitro; 20 min
Summary of the method: (§1)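 Percent free enzyme activity was calculated against total activity released by 0.02% detergent. Drug (5 μmoles, 1% CMC) was incubated 20 min with rat liver homogenate (sucrose/EDTA, pH 7.2) at pH 5.0 acetate. Substrates: β-glycerol phosphate for phosphatase (phosphate read-out), azocasein for cathepsin (366 nm).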

[7] = tested on: Cathepsin; experiment: Lysosomal free cathepsin activity, liver homogenate; type: biochemical, rats; settings: 5 μmoles; for Liver % Free Cathepsin Activity, pH5: in vitro, 20 min
Summary of the method: as §1

[8] = tested on: Acid phosphatase; experiment: Lysosomal free acid phosphatase activity, PMNs; type: cell-based; settings: 5 μmoles; for PMNs % Free Acid Phosphatase Activity, pH5: in vitro, 60 min
Summary of the method: (§2)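 Glycogen-elicited peritoneal PMNs, or liver homogenate, incubated with 5 μmoles test drug in 1% CMC for 60 or 20 min at pH 5.0. Acid phosphatase: 0.1 M β-glycerol phosphate, inorganic phosphate read; cathepsin: 2% azocasein, acid-soluble peptides at 366 nm. Free activity expressed as percent of detergent-released total.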

[9] = tested on: Cathepsin; experiment: Lysosomal free cathepsin activity, PMNs; type: cell-based; settings: 5 μmoles; for PMNs % Free Cathespin Activity, pH5: in vitro, 60 min
Summary of the method: as §2

[10] = tested on: cAMP levels in PMNs; experiment: Cyclic-3',5'-adenosine monophosphate levels (cAMP) in PMNs; type: cell-based; settings: 1 h; for activation at 5 µmol: read-out: increase of cyclic adenosine monophosphate levels in PMNs
Summary of the method: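 Glycogen-elicited peritoneal neutrophils in MEM with 10% FCS, pH 7.4, exposed to test drugs at 5μ moles for 1 hr at 37° C; stopped with 6% trichloroacetic acid. cAMP measured by radioimmunoassay with 3H-cAMP tracer, expressed as p mole/10^7 PMNs.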

[11] = target: T1, prostaglandin synthetase from beef seminal vesicle (Bos taurus, UniProt O62664); experiment: Prostaglandin synthetase activity; type: biochemical; settings: for inhibition at 1 µM / activity at 1 µM: 10^-6 M
T1 construct: purchased; host or cells: beef seminal vesicle
T1 sequence (O62664 25-600): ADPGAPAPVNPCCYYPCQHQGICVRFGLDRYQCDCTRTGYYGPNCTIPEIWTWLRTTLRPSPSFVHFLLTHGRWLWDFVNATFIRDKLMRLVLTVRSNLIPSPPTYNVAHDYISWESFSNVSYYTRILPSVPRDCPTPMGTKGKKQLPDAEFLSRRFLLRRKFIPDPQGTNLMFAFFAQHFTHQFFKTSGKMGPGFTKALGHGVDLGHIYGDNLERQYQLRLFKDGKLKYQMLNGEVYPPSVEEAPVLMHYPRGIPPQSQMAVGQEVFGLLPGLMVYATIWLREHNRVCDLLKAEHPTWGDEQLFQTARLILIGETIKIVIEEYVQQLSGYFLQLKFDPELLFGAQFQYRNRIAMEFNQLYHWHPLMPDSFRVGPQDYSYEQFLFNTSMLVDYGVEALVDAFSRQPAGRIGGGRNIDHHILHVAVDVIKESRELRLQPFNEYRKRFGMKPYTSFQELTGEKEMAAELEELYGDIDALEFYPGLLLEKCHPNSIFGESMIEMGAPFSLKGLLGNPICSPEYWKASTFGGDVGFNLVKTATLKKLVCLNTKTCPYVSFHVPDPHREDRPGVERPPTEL
Protocol: After 1 hr at 37° C. the reaction was stopped with 1 N HCl and extracted with ethyl ether and evaporated. […] The plates were dried and developed in iodine vapor and with the use of prostaglandin standards the appropriate areas were scraped and counted for ^3 H content. Indometacin was used as a standard at 10^-4 M concentration. Test drugs were used at 10^-6 M.

[12] = tested on: liver mitochondria; experiment: Oxidative phosphorylation, succinate as substrate; type: biochemical, rats; settings: 5 μmoles; for Oxidative Phosphorylation Succinate State 3: ADP stimulated respiration; for Oxidative Phosphorylation Succinate State 4: basal respiration
Summary of the method: (§3)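 Basal and ADP-stimulated respiration of 10% liver homogenates, with succinate (90 μmoles) or α-ketoglutarate (60 μmoles) as substrate, in sucrose/KCl/K2HPO4 medium. Test compounds at 5 μmoles in 1% CMC in 1.8 ml total. Rate given as μl O2 consumed/hr/mg wet liver weight.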

[13] = tested on: liver mitochondria; experiment: Oxidative phosphorylation, α-ketoglutarate as substrate; type: biochemical, rats; settings: 5 μmoles; for Oxidative Phosphorylation α Ketoglutarate State 3: ADP stimulated respiration; for Oxidative Phosphorylation α Ketoglutarate State 4: basal respiration
Summary of the method: as §3

[14] = Hydrolytic, air and moisture stability
[15] = in vivo; settings: mouse
[16] = pH 7.4, read-out: PMNs cAMP Level
[17] = read-out: inhibition of prostaglandin synthesis
[18] = 1 h, read-out: Prostaglandin Synthesis
[19] = indomethacin tested at 10 mg/kg

Compound	Anti-inflammatory Screen ([1]; 10 mg/kg × 2 intraperitoneally) [% Control]	inhibition of the carrageenan induced edema in mouse foot pads [1]	Writhing Reflex ([2]; 20 mg/kg intraperitoneally) [% Control]	inhibition of the writhing reflex [2] [%]	alteration of the red blood or white blood cell count/cu mm [5]	Liver % Free Acid Phosphatase Activity, pH5 [6] [% Control]	inhibition of free proteolytic cathepsin activity of liver [7]	Liver % Free Cathepsin Activity, pH5 [7] [% Control]	inhibition of free acid phosphatase activity in PMNs [8] [%]	PMNs % Free Acid Phosphatase Activity, pH5 [8] [% Control]	PMNs % Free Cathespin Activity, pH5 [9] [% Control]	activity at 5 µmol [10, 16] [%]	activation at 5 µmol [10] [%]	inhibition at 1 µM [11, 17] [%]	activity at 1 µM [11, 18] [%]	Oxidative Phosphorylation Succinate State 3 [12] [% Control]	Oxidative Phosphorylation Succinate State 4 [12] [% Control]	Oxidative Phosphorylation α Ketoglutarate State 3 [13] [% Control]	Oxidative Phosphorylation α Ketoglutarate State 4 [13] [% Control]	inhibition of PMN cathepsin activity [9]	other results
C[N+](C)(C)[BH2-]C#N [Compound V, trimethylamine-cyanoborane]	42	at least 50%	18	80	no alteration	69 ± 4	100%	0 ± 2	65	35 ± 5	4 ± 2	245	145	> 30	59 ± 6	51 ± 20	133 ± 20	42 ± 9	85 ± 21		inhibition in the rat induced arthritic screen ([3]; 1.25 mg/kg/day intraperitoneally): 75%; inhibition in the rat induced arthritic screen ([3]; 5 mg/kg/day intraperitoneally): 100%; inhibition in the rat induced arthritic screen ([3]; 10 mg/kg/day intraperitoneally): 100%; inhibition of elevated body temperature ([4]; 5 mg/kg): no inhibition; inhibition of elevated body temperature ([4]; 10 mg/kg): no inhibition; both states 3 and 4 respiration with α-ketoglutarate [13]: inhibited
COc1ccc2c(c1)c(CC(=O)O)c(C)n2C(=O)c1ccc(Cl)cc1 [Indomethacin, reference compound]						86 ± 4		67 ± 6		100 ± 2	100 ± 1	80		24							Anti-inflammatory Screen [1, 19]: 22 % Control; Writhing Reflex [2, 19]: 43 % Control; Anti-Arthritic Screen ([3]; indomethacin tested at 10 mg/kg, rats): 27 % Control; inhibition at 100 µM ([11]; 10^-4 M, read-out: inhibition of prostaglandin synthesis): 36%; activity at 100 µM ([11]; 1 h, 10^-4 M (indomethacin), read-out: Prostaglandin Synthesis): 64 ± 2%
C[N+](C)(C)[BH2-]C(=O)O [VIII, trimethylamine-carboxyborane]	79		29	70		82 ± 5		56 ± 6	50	50 ± 3	14 ± 4				93 ± 3	63 ± 4	122 ± 14	70 ± 20	127 ± 22	at least 82%	activity at 5 µmol ([10]; pH 7.4, 5 μmoles, in vitro, read-out: PMNs cAMP Level): 99%; uncoupling with α-ketoglutarate as substrate [13]: uncoupling; stability to air and water/moisture [14]: stable in air and H2 O
C[N+](C)([BH2-]C#N)CCC#N [XIX, 3-Dimethylaminopropionitrile-cyanoborane]	74		89		no alteration	66 ± 4	at least 75%	15 ± 3		100 ± 9	17 ± 5	199	99	> 30	53 ± 7	24 ± 7	43 ± 16	33 ± 8	105 ± 33	at least 82%	both states 3 and 4 respiration with succinate [12]: inhibited; LD50 [15]: 140 mg/kg
N#C[BH2-][NH3+] [XVII, ammonia-cyanoborane]	51	at least 40%	50			75 ± 5		48 ± 6		100 ± 2	26 ± 4	93		> 30	55 ± 6	60 ± 11	112 ± 7	40 ± 9	149 ± 27		LD50 [15]: 30 mg/kg; loss of hydrogen (hydrolytic stability) ([14]; concentrated HCl, 70 hr, room temperature): 8%
